In the OPERA property sets (Mansouri et al. 2018):
Converted amounts (≈) assume the structure as drawn.

Compound	logP	further results
CC1OC(C)OC(C)OC(C)O1 (configuration not stated)	0.12	
CCCC(=O)N(CSP(=S)(OC)OC)c1ccccc1Cl	0.56	
C#CCOS(=O)OC1CCCCC1Oc1ccc(C(C)(C)C)cc1 (configuration not stated)		solubility (25 °C): 0.00143 mM (≈ 0.5 µg/mL)
C[C@@H]1[C@@H](c2ccc(Cl)cc2)SC(=O)N1C(=O)NC1CCCCC1 (single isomer, unassigned)		solubility (20 °C): 0.00142 mM (≈ 0.5 µg/mL)
CCOP(=O)(OCC)SCCSCC		solubility (20 °C): 7.74 mM (≈ 2000 µg/mL)
CCCCNC1(P(=O)(OCCCC)OCCCC)CCCCC1		solubility (20 °C): 0.489 mM (≈ 170 µg/mL)
C[n+]1ccc(-c2cc[n+](C)cc2)cc1		solubility (20 °C): 2410 mM
N#CN	-0.82	solubility (20 °C): 11900 mM (≈ 500000 µg/mL)
O=C(Nc1ccccc1-c1ccc(Cl)cc1)c1cccnc1Cl	2.96	
N#Cc1c(Cl)c(Cl)c(Cl)c(C#N)c1Cl		solubility (25 °C): 0.00226 mM (≈ 0.6 µg/mL)
CC(C)=CC1C(C(=O)OCc2cccc(Oc3ccccc3)c2)C1(C)C (configuration not stated)	6.01	solubility (25 °C): < 2.77e-05 mM
CC1=C(C(=O)Nc2ccccc2)SCCO1		solubility (20 °C): 0.672 mM (≈ 158 µg/mL)
COC(=O)c1ccccc1S(=O)(=O)NC(=O)Nc1nc(C)cc(C)n1		solubility (pH 7.0, 25 °C): 0.743 mM (≈ 271 µg/mL)
COC(=O)c1ccccc1S(=O)(=O)NC(=O)N(C)c1nc(C)nc(OC)n1		solubility (pH 5.0, 25 °C): 0.126 mM (≈ 50 µg/mL)
CON=C(C(=O)OC)c1ccccc1CON=C(C)c1cccc(C(F)(F)F)c1	4.5	
CCN(Cc1ccc(Cl)nc1)/C(=C/[N+](=O)[O-])NC	-0.66	
CCCCCCCC(=O)Oc1c(Br)cc(C#N)cc1Br	5.4	
O=[N+]([O-])c1cc(C(F)(F)F)c(Cl)c([N+](=O)[O-])c1Nc1ncc(C(F)(F)F)cc1Cl	4.01	
CCN(CC)c1c([N+](=O)[O-])cc(C(F)(F)F)c(N)c1[N+](=O)[O-]	4.3	
CCOC(=O)COc1cc(-c2nn(C)c(OC(F)F)c2Cl)c(F)cc1Cl	3.49	
CC(C)=CC1C(C(=O)OCc2coc(Cc3ccccc3)c2)C1(C)C (configuration not stated)		solubility (25 °C): 0.000315 mM (≈ 0.107 µg/mL)
C[n+]1ccc(-c2cc[n+](C)cc2)cc1.[Cl-].[Cl-]	-4.5	solubility (20 °C): 2720 mM
O=[N+]([O-])/N=C1\NCCN1Cc1ccc(Cl)nc1	0.57	
Nc1nc[nH]n1	-0.97	
CCCCC(CC)COC(=O)COc1ccc(Cl)cc1Cl (configuration not stated)	5.78	
Fc1ccc(Oc2ccnc3cc(Cl)cc(Cl)c23)cc1	4.66	solubility (20 °C): 0.000376 mM (≈ 0.116 µg/mL)
CSc1nnc(C(C)(C)C)c(=O)n1/N=C/C(C)C		solubility (20 °C): 0.0373 mM (≈ 10 µg/mL)

Compound	logP	further results
COC(=O)N(C(=O)N1CO[C@@]2(C(=O)OC)Cc3cc(Cl)ccc3C2=N1)c1ccc(OC(F)(F)F)cc1	4.65	
Nc1c(Cl)c(F)nc(OCC(=O)O)c1Cl		solubility (pH 9.2, 20 °C): 0.357 mM (≈ 91 µg/mL)
Cc1ccc2nc3sc(=O)sc3nc2c1	3.78	solubility (20 °C): 0.00427 mM (≈ 1 µg/mL)
CCC(C)(NC(=O)c1cc(Cl)c(C)c(Cl)c1)C(=O)CCl (configuration not stated)	3.76	
CCCC1COC(Cn2cncn2)(c2ccc(Cl)cc2Cl)O1 (configuration not stated)	3.72	solubility (20 °C): 0.321 mM (≈ 110 µg/mL)
CCSC(=O)N(CC)C1CCCCC1	3.88	
Clc1ccc(C2(Cn3cncn3)CC(Br)CO2)c(Cl)c1 (configuration not stated)	3.24	solubility (25 °C): 0.133 mM (≈ 50 µg/mL)
CCCN(CC1CC1)c1c([N+](=O)[O-])cc(C(F)(F)F)cc1[N+](=O)[O-]		solubility (20 °C): 0.000288 mM (≈ 0.1 µg/mL)
CC1=C(C(=O)Nc2ccccc2)S(=O)(=O)CCO1	0.77	solubility (25 °C): 4.43 mM (≈ 1180 µg/mL)
CN1CSC(=S)N(C)C1	0.63	solubility (20 °C): 18.5 mM (≈ 3000 µg/mL)
CC(C)N(C(=O)CCl)c1ccccc1		solubility (25 °C): 3.31 mM (≈ 700 µg/mL)
N#CCON=C(C#N)c1ccccc1		solubility (20 °C): 0.513 mM (≈ 95 µg/mL)
CCC(CC)Nc1c([N+](=O)[O-])cc(C)c(C)c1[N+](=O)[O-]	5.2	solubility (20 °C): 0.00107 mM (≈ 0.3 µg/mL)
CN(C)C(=S)SSC(=S)N(C)C	1.73	
O=C(Nc1ccccc1)Nc1cnns1		logD (pH 7.3): 1.77
CC1(C(=O)Nc2ccc(O)c(Cl)c2Cl)CCCCC1	3.51	
CC(C)N1C(=O)N(c2ccccc2)CSC1=NC(C)(C)C	4.3	solubility (20 °C): 0.00295 mM (≈ 0.9 µg/mL)
CN/C(=N\[N+](=O)[O-])NCc1cnc(Cl)s1	0.7	
CCOC1Oc2ccc(OS(C)(=O)=O)cc2C1(C)C (configuration not stated)	2.7	solubility (25 °C): 0.259 mM (≈ 74.1 µg/mL)
Nc1c(Cl)c(Cl)nc(C(=O)O)c1Cl	1.9	
C/C=C(\C)C(=O)O[C@H]1C[C@@H](OC(C)=O)[C@@]2(C(=O)OC)CO[C@H]3[C@@H](O)[C@@](C)([C@]45O[C@@]4(C)[C@H]4C[C@@H]5O[C@@H]5OC=C[C@@]54O)[C@H]4[C@]1(CO[C@]4(O)C(=O)OC)[C@@H]32		solubility: 0.361 mM (≈ 260 µg/mL)
COC(=O)N(OC)c1ccccc1COc1ccn(-c2ccc(Cl)cc2)n1	3.99	
CC(Oc1cccc(Cl)c1)C(=O)O (configuration not stated)		solubility (22 °C): 5.98 mM (≈ 1200 µg/mL)
CCCCOC(=O)[C@@H](C)Oc1ccc(Oc2ccc(C#N)cc2F)cc1	3.31	
COC(=O)c1ccccc1CS(=O)(=O)NC(=O)Nc1nc(OC)cc(OC)n1	2.18	
C=CCOC(Cn1ccnc1)c1ccc(Cl)cc1Cl (configuration not stated)	3.82	solubility (pH 7.6, 20 °C): 0.606 mM (≈ 180 µg/mL)
CCC(C)(CC)c1cc(NC(=O)c2c(OC)cccc2OC)on1	3.94	
